Assay results taken from paper PMC10178127, “Immunomodulatory Effects of the Pea Defensin Psd1 in the Caco-2/Immune Cells Co-Culture upon Candida albicans Infection” (International Journal of Molecular Sciences, 2023).

System: Caco-2/moDCs co-culture
Assay: Multiplex xMAP cytokine production, Caco-2/dendritic cells co-culture
Assay type: cell-based, human
Conditions: 24 h; for EGF level / Eotaxin level / FGF-2 level / FLT-3L level / Fractalkine level / G-CSF level / GM-CSF level / GROa level / IFNa2 level / IFNg level / IL-1RA level / IL-1a level / IL-1b level / IL-2 level / IL-3 level / IL-4 level / IL-5 level / IL-6 level / IL-7 level / IL-8 level / IL-9 level / IL-10 level / IL-12 (p40) level / IL-12 (p70) level / IL-13 level / IL-15 level / IL-17A level / IL-17E/IL-25 level / IL-17F level / IL-18 level / IL-22 level / IL-27 level / IP-10 level / M-GSF level / MCP-1 level / MCP-3 level / MDC level / MIG level / MIP-1a level / MIP-1b level / PDGF-AA level / PDGF-AB/BB level / RANTES level / TGF-a level / TNFa level / TNFb level / VEGFa level / sCD40L level: 2 µM apical, basolateral medium
From the text: The co-culture model consisted of immune cells (moDCs or monocytes) lying on the bottom of the culture well, and a Caco-2 polarized monolayer, mimicking intestinal epithelium, on a permeable insert. Immune cells were located on the serosal side of the epithelial barrier. In some inserts Candida albicans was loaded to the apical side of the epithelium, mimicking intestinal lumen colonization with this pathogenic fungus. This co-culture model allows yeast cells to contact only with the apical side of epithelial cells, but not with immune cells. Culture medium, containing cytokines, chemokines, and growth factors, produced by both epithelial and immune cells, was taken from basolateral chambers and analyzed by multiplex xMAP technology after incubation during 24 h when C. albicans cells switched to hyphal form.
For growing cells, mimicking epithelial barriers in vitro, Caco-2 cells were seeded onto 24-well polycarbonate Millicell cell culture inserts (0.4 μm, 0.6 cm^2 surface area) (Millipore, Burlington, MA, USA), precoated with 0.2% bovine gelatin (Sigma-Aldrich), at a density of 2.5 × 10^5 cells/cm^2. The cells were grown for 21 days in a complete DMEM/F12 (1:1) medium with re-feeding every 2–3 days with a fresh complete medium. The integrity of the Caco-2 cell monolayer was checked by measuring the transepithelial electrical resistance (TEER) using a Millicell-ERS Voltohmmeter (Millipore). Only cell monolayers with TEER > 400 Ωcm^2 (after subtracting TEER in blank inserts without Caco-2 cells) were used in transport across epithelial monolayer and cytokine production experiments.
Monocytes and moDCs were seeded into the wells of 48- and 24-well plates in the complete RPMI-1640 medium supplemented with 10% human AB serum (HABS, Capricorn Scientific) without antibiotics 24 h prior to the experiment, and kept in a humidified CO2-incubator (5% CO2, 37 °C). After 24 h, the medium in the wells of the 48-well plate was replaced by fresh complete RPMI-1640 medium with 10% HABS, supplemented with 2 µM of Psd1 for the sample wells or fresh medium alone for the control wells. Medium in the wells of the 24-well plate was replaced by fresh complete RPMI-1640 medium with 10% human serum without antibiotics. Then, Millicell inserts with Caco-2 monolayers with TEER > 400 Ωcm^2 were placed into the wells of the 24-well plate, containing monocytes or moDCs. Wells with Millicell inserts with Caco-2 monolayers without immune cells were used as control wells. Medium in apical chambers of Millicell inserts was replaced by fresh complete RPMI-1640 with 10% human serum medium containing Psd1 at the final concentration of 2 µM or Candida albicans at the concentration of 5 × 10^4 cells/mL or yeast cells together with the pea defensin at the same concentration. Fresh complete RPMI-1640 medium only with 10% human serum and without antibiotics was used in control wells. Plates were kept in CO2-incubator (5% CO2, 37 °C) for another 24 h. Culture supernatants from the wells of the 48-well plate and basolateral chambers of the 24-well plate were collected and stored at −70 °C degrees less than one month prior to the analytes assessment. […]

## Psd1: pea defensin from Pisum sativum (UNIPROT P81929), recombinant peptide overexpressed in Escherichia coli (KTCEHLADTYRGVCFTNASCDDHCKNKAHLISGTCHNWKCFCTQNC; UniProt P81929 1-46, looked up)
Caco-2/dendritic cells co-culture with C. albicans, 2 μM
  production of TNFα, IL-6, IL-8/CXCL8, IL-12, IL-27, G-CSF, GM-CSF, and MIPs induced by C. albicans: inhibited the production
Caco-2/moDCs+Candida+Psd1
  EGF level: 4.72 pg/mL
  Eotaxin level: <3.52↓ pg/ml
  FGF-2 level: 37.17 pg/mL
  FLT-3L level: 0.57 pg/mL
  Fractalkine level: <17.82↓ pg/ml
  G-CSF level: 3.15 pg/mL
  GM-CSF level: 1.96 pg/mL
  GROa level: 23.25 pg/mL
  IFNa2 level: 7.95 pg/mL
  IFNg level: <2.23↓ pg/ml
  IL-1RA level: 160.3 pg/mL
  IL-1a level: 3.72 pg/mL
  IL-1b level: <2.26↓ pg/ml
  IL-2 level: 1.49 pg/mL
  IL-3 level: <0.60↓ pg/ml
  IL-4 level: <1.14↓ pg/ml
  IL-5 level: 2.95 pg/mL
  IL-6 level: 1.46 pg/mL
  IL-7 level: <0.38↓ pg/ml
  IL-8 level: 107.27 pg/mL
  IL-9 level: 4.69 pg/mL
  IL-10 level: 17.03 pg/mL
  IL-12 (p40) level: 52.85 pg/mL
  IL-12 (p70) level: <1.68↓ pg/ml
  IL-13 level: 11.06 pg/mL
  IL-15 level: 8.46 pg/mL
  IL-17A level: <2.09↓ pg/ml
  IL-17E/IL-25 level: <18.85↓ pg/ml
  IL-17F level: <19.03↓ pg/ml
  IL-18 level: 4.94 pg/mL
  IL-22 level: <5.23↓ pg/ml
  IL-27 level: 49.72 pg/mL
  IP-10 level: 334.16 pg/mL
  M-GSF level: 123.66 pg/mL
  MCP-1 level: 307.65 pg/mL
  MCP-3 level: 19.67 pg/mL
  MDC level: 2630 pg/mL
  MIG level: 38259 pg/mL
  MIP-1a level: 16.22 pg/mL
  MIP-1b level: 78.16 pg/mL
  PDGF-AA level: 256.1 pg/mL
  PDGF-AB/BB level: 97.16 pg/mL
  RANTES level: <0.62↓ pg/ml
  TGF-a level: 35.55 pg/mL
  TNFa level: 18.93 pg/mL
  TNFb level: 0.97 pg/mL
  VEGFa level: 75.3 pg/mL
  sCD40L level: 84.71 pg/mL
Caco-2/moDCs+Psd1
  EGF level: 4.72 pg/mL
  Eotaxin level: <3.52↓ pg/ml
  FGF-2 level: 45.43 pg/mL
  FLT-3L level: 0.57 pg/mL
  Fractalkine level: <17.82↓ pg/ml
  G-CSF level: 9.1 pg/mL
  GM-CSF level: 3.93 pg/mL
  GROa level: 21.95 pg/mL
  IFNa2 level: 5.69 pg/mL
  IFNg level: <2.23↓ pg/ml
  IL-1RA level: 141.59 pg/mL
  IL-1a level: 4.37 pg/mL
  IL-1b level: 9.3 pg/mL
  IL-2 level: 1.57 pg/mL
  IL-3 level: <0.60↓ pg/ml
  IL-4 level: <1.14↓ pg/ml
  IL-5 level: 3.35 pg/mL
  IL-6 level: 2.41 pg/mL
  IL-7 level: <0.38↓ pg/ml
  IL-8 level: 134.16 pg/mL
  IL-9 level: 3.44 pg/mL
  IL-10 level: 10.61 pg/mL
  IL-12 (p40) level: 52.85 pg/mL
  IL-12 (p70) level: <1.68↓ pg/ml
  IL-13 level: 16.44 pg/mL
  IL-15 level: 10.29 pg/mL
  IL-17A level: <2.09↓ pg/ml
  IL-17E/IL-25 level: <18.85↓ pg/ml
  IL-17F level: <19.03↓ pg/ml
  IL-18 level: 4.84 pg/mL
  IL-22 level: <5.23↓ pg/ml
  IL-27 level: 53.57 pg/mL
  IP-10 level: 330.74 pg/mL
  M-GSF level: 144.24 pg/mL
  MCP-1 level: 362.92 pg/mL
  MCP-3 level: 20.63 pg/mL
  MDC level: 2562 pg/mL
  MIG level: 32839 pg/mL
  MIP-1a level: 20.66 pg/mL
  MIP-1b level: 85.91 pg/mL
  PDGF-AA level: 233.14 pg/mL
  PDGF-AB/BB level: 92.84 pg/mL
  RANTES level: <0.62↓ pg/ml
  TGF-a level: 40.15 pg/mL
  TNFa level: 20.96 pg/mL
  TNFb level: 1.55 pg/mL
  VEGFa level: 82.2 pg/mL
  sCD40L level: 98.67 pg/mL
